Experimental data taken from patent publication US6903133B2, “Anticancer compounds” (Plantaceutica, Inc., priority 2002, dated 2005).

Tested on: KB cells
Test: cytotoxicity against KB cells (sulforhodamine B assay)
Type: cell-based
Conditions: KB cells (nasopharyngeal carcinoma cells); result in words only
Procedure: Podophyllotoxin derivatives of this invention can be preliminarily screened for their efficacy in treating cancer by in vitro assays. For example, podophyllotoxin derivatives can be tested for their cytotoxicity against KB cells (nasopharyngeal carcinoma). More specifically, a test compound can be added to a culture of KB cells and its IC50 (i.e., the concentration of the test compound which achieves a half-maximal inhibition of cell growth) is determined using the sulforhodamine B (a protein binding dye) assay as described in J.N.C.I. (1990) 82: 1107. The podophyllotoxin derivatives of this invention are also tested for their abilitives to inhibit DNA topoisomerase II in vitro as described in Cho et al. (1996 J. Med. Chem. 39: 1396) and to stimulate protein-linked DNA breaks (PLDB) in KB cells as described in Rowe et al. (1986 Cancer Res. 46:2021). DNA topoisomerase II is a well known target for cancer treatment drugs. See, e.g., MacDonald et al. (1991) DNA Topoisomerase in Cancer; Oxford University Press: New York.
A number of compounds of this invention were evaluated for cytotoxicity against KB cells, which are nasopharyngeal carcinoma cells. They were also tested for stimulation of cellular protein-linked DNA breaks (PLDB) using etoposide as a positive control. Etopside is a widely-used antineoplastic agent, see, e.g., Zhang et al. (1994) J. Med. Chem. 37: 446.

| Structure (SMILES) | IC50 values against KB cells |
| --- | --- |
| COc1cc([C@@H]2c3cc4c(cc3[C@@H](Nc3nc(COC(C)=O)cs3)[C@@H]3COC(=O)[C@H]23)OCO4)cc(OC)c1O [Compound 36, 4′-O-demethyl-4β-[4″-(methyl-O-acetyl)-2″-thiazolylamino]-4-desoxypodophyllotoxin] | unexpectedly low |
| CCOC(=O)c1sc(N[C@@H]2c3cc4c(cc3[C@@H](c3cc(OC)c(O)c(OC)c3)[C@H]3C(=O)OC[C@H]32)OCO4)nc1C [Compound 45, 4′-O-demethyl-4β-(5″-ethoxycarbonyl-4″-methyl-2″-thiazolylamino)-4-desoxypodophyllotoxin] | unexpectedly low |
| COc1cc([C@@H]2c3cc4c(cc3[C@@H](Nc3ncc([N+](=O)[O-])s3)[C@@H]3COC(=O)[C@H]23)OCO4)cc(OC)c1O [Compound 49, 4′-O-demethyl-4β-(5″-nitro-2″-thiazolylamino)-4-desoxypodophyllotoxin] | unexpectedly low |
| CCOC(=O)c1ccc(N[C@@H]2c3cc4c(cc3[C@@H](c3cc(OC)c(O)c(OC)c3)[C@H]3C(=O)OC[C@H]32)OCO4)nc1 [Compound 39] | unexpectedly low |
